Reference: patent US12251382B2, “Substituted amino-pyrimidine compound for use in a method for treatment and prevention of multiple sclerosis” (Merck Patent GmbH, priority 2018, dated 2025)

Tested on: human patients suffering from relapsing multiple sclerosis (RMS)
Assay: Phase II RMS study: brain MRI (Gd+ T1 lesions, T2 lesions)
Assay type: in vivo
Set-up: key to Gd+ T1 lesion rate (subject level), Median / Gd+ T1 Lesion rate, adjusted (negative binomial model): number of Gd+ T1 lesions per scan
Conditions: for New or enlarging T2 lesion rate (subject level), Mean ± SD: Weeks 12-24; for Difference in LS means of CFB in cube root of volume of T2 lesions vs placebo: week 24, MMRM
Experimental: The assessing Investigator and central MRI reader were treatment blinded.
The protocol specified that subjects self-administered the IMP at a set time each day (every 12 hours ±2 hours). Subjects were to take their daily dose more than 1 hour prior to a meal or snack and more than 2 hours after a meal or snack. Clear fluids were allowed at any time. On trial visit days, the IMP was to be administered during the trial visit after the scheduled trial visit procedures (other than post-treatment PK/PD sampling) are completed.
Stratification occurred by region (USA or Western Europe, Eastern Europe and BTKO capable, Eastern Europe and not BTKO capable, and RoW). For the first 7 days, Tecfidera was administered orally at 120 mg twice daily. Following this and for the duration of treatment, Tecfidera was administered orally at 240 mg twice daily.
The protocol specified that MRI scans were to be performed at Screening, at 4-week intervals from Week 12 to 24, and at the End of Treatment Visit at Week 48 (including for subjects receiving Tecfidera who choose to enter the OLE Period). […] If a subject discontinued the study more than 4 weeks after his or her most recent MRI, the protocol specified that an MRI may be obtained at the 4-week Safety Follow-up Visit. The Screening MRI scan was to be acquired before randomization and dosing to allow for the readouts to be read by the central MRI reader (approximately 7 days).
Gadolinium was used to enhance T1-weighted lesions and to optimize clarity and accuracy of reporting. As gadolinium is excreted renally, subjects with acute renal insufficiency (eGFR <45 mL/min/1.73 m^2) will be excluded from the trial.
The protocol specified that brain MRI scans were performed according to a standardized imaging protocol before and after the administration of single-dose gadolinium. Images were assessed and reported by an independent, blinded, centralized MRI reading service, provided by NeuroRx Research. The assessment was performed in the absence of clinical information. Further details, including the scans required and the optimal MRI workflow, were provided in a separate Imaging Manual provided to each trial site by NeuroRx Research. All MRI images were reviewed and reported locally by a radiologist for safety. The local report was to contain only non-MS pathology and was to be provided to the Treating Investigator.
The primary endpoint was the total number of gadolinium-enhancing T1 lesions at Week 12, 16, 20, and 24. The primary analysis was a comparison of each evobrutinib dose arm versus placebo based on this endpoint, with a supportive test for dose-response. Secondary Endpoints
Other covariates were permitted to be considered. […] Descriptive statistics for the total number of Gd+ T1 lesions, at Week 12, 16, 20, and 24, are provided for each treatment group.
Estimation of mean per-scan number of Gd+ T1 lesions at Weeks 12, 16, 20, and 24, for each treatment group, was based on the NB model. In the analysis of each secondary endpoint, other covariates were permitted to be included in the model.
Primary and secondary efficacy endpoints were analysed based on the modified intention-to-treat (mITT) analysis set, consisting of all randomized patients with at least one available baseline and one post-baseline MRI assessment. […] For each endpoint, rate ratio (RR; null-hypothesis RR=1.0) adjusted for baseline disease activity was reported together with associated 95% CI and p-value. The T2 lesion endpoint was analysed similarly. Dose-response relationships between evobrutinib treatment dose and primary and key secondary endpoints were assessed for linear and monotonic trend. The analysis of CFB in cube root of volume of T2 lesions at Week 24 was based on a mixed-effect model for repeated measures, with fixed effects for treatment, week of visit, and treatment-by-week interaction, random effect for subject, and adjustment for baseline cube root of lesion volume. CFB in SF-36 score at Week 24 was analysed similarly. […]

[1] = 25 mg QD, listed as evobrutinib
[2] = 75 mg BID, listed as evobrutinib

With `C=CC(=O)N1CCC(CNc2ncnc(N)c2-c2ccc(Oc3ccccc3)cc2)CC1` [Evobrutinib, 1-(4-(((6-amino-5-(4-phenoxyphenyl)pyrimidin-4-yl)amino)methyl)piperidin-1-yl)prop-2-en-1-one] the “Change in volume of T2 lesions from baseline to week 24, Mean ± SD” value (shortened to “Change in volume of T2 lesions … Mean ± SD”) (25 mg QD) was 0.93 ± 1.85 cc, the “Change in volume of T2 lesions from baseline to week 24, Median” value (“Change in volume of T2 lesions … Median” below) (25 mg QD) was 0.05 cc and the “Gd+ T1 Lesion rate, adjusted (negative binomial model)” value (from here on “Gd+ T1 Lesion rate, adjusted”) (25 mg QD) was 1.09. The “Gd+ T1 lesion rate (subject level), Median” value (“Gd+ T1 lesion rate … Median” for short) (25 mg QD) was 0.25, the “Gd+ T1 lesion rate (subject level; count per scan, weeks 12-24), Mean ± SD” value (25 mg QD) was 1.31 ± 3.13 and the “Total Number of New or Enlarging T2 Lesions at Week 24, Mean ± SD” value (from here on “Total Number … at Week 24, Mean ± SD”) (25 mg QD) was 6.52 ± 11.57. The “Total number of Gd+ T1 lesions at Weeks 12, 16, 20, 24, Mean ± SD” value (shortened to “Total number of Gd+ T1 lesions … Mean ± SD”) (25 mg QD) was 5.23 ± 12.52, the “Total number of Gd+ T1 lesions at Weeks 12, 16, 20, 24, Median (min-max)” value (from here on “Total number of Gd+ T1 lesions … (min-max)”) (25 mg QD) was 1 (0-76) and the “New or enlarging T2 lesion rate (subject level), Mean ± SD” value (25 mg QD) was 2.08 ± 4.19. The “Difference in LS means of CFB in cube root of volume of T2 lesions vs placebo” value (shortened to “Difference in LS means of CFB”) (25 mg QD) was 0.05 cm, the “Change in volume of T2 lesions … Median” value [1] was “increased” and the “Gd+ T1 lesion rate (subject level; count per scan, weeks 12-24), Mean ± SD” value [1] was 1.31±3.13. The “Change in volume of T2 lesions … Mean ± SD” value (75 mg BID) was 0.06 ± 0.50 cc, the “Change in volume of T2 lesions … Median” value (75 mg BID) was −0.02 cc and the “Gd+ T1 Lesion rate, adjusted” value (75 mg BID) was 0.34. For the same compound, the “Gd+ T1 lesion rate … Median” value (75 mg BID) was 0.0, the “Gd+ T1 lesion rate (subject level; count per scan, weeks 12-24), Mean ± SD” value (75 mg BID) was 0.35 ± 0.96 and the “Total Number … at Week 24, Mean ± SD” value (75 mg BID) was 2.26 ± 4.72. For the same compound, the “Total number of Gd+ T1 lesions … Mean ± SD” value (75 mg BID) was 1.39 ± 3.85, the “Total number of Gd+ T1 lesions … (min-max)” value (75 mg BID) was 0 (0-25) and the “New or enlarging T2 lesion rate (subject level), Mean ± SD” value (75 mg BID) was 0.73 ± 1.57. The “New or enlarging T2 lesion rate (subject level), Mean ± SD” value [2] was 0.73±1.57, the “Difference in LS means of CFB” value (75 mg BID) was −0.35 cm and the “Gd+ T1 lesion rate (subject level; count per scan, weeks 12-24), Mean ± SD” value [2] was 0.35±0.96. For the same compound, the “Change in volume of T2 lesions … Mean ± SD” value (75 mg QD) was 0.01 ± 0.57 cc, the “Change in volume of T2 lesions … Median” value (75 mg QD) was −0.01 cc and the “Gd+ T1 Lesion rate, adjusted” value (75 mg QD) was 0.27. The “Gd+ T1 lesion rate … Median” value (75 mg QD) was 0.0, the “Gd+ T1 lesion rate (subject level; count per scan, weeks 12-24), Mean ± SD” value (75 mg QD) was 0.42 ± 1.17 and the “Total Number … at Week 24, Mean ± SD” value (75 mg QD) was 3.57 ± 10.82. For the same compound, the “Total number of Gd+ T1 lesions … Mean ± SD” value (75 mg QD) was 1.69 ± 4.69, the “Total number of Gd+ T1 lesions … (min-max)” value (75 mg QD) was 0 (0-27) and the “Total number of Gd+ T1 lesions versus placebo” value (75 mg QD and 75 mg BID, Weeks 12, 16, 20 and 24) was “significantly reduced Gd+ T1 lesions versus placebo”. The “New or enlarging T2 lesion rate (subject level), Mean ± SD” value (75 mg QD) was 0.89 ± 2.71, the “Difference in LS means of CFB” value (75 mg QD) was −0.35 cm and the “Gd+ T1 lesion rate (subject level; count per scan, weeks 12-24), Mean ± SD” value (75 mg QD, listed as evobrutinib) was 0.42±1.17. For the same compound, the “Total Gd+ T1 lesions over 4 scans in an outlier patient” value (one patient, 25 mg QD) was 76 and the “Dose response of Gd+ T1 lesion count” value (weeks 12-24, p<0.01) was “significant dose response was observed”.
